Measured values published in PubChem BioAssay AID248 (DTP/NCI, 2004).
Several values for one entry are separate records, joined by “and”; a condition that tells them apart may be missing. Equal entries are not always repeated. Inconclusive results and toxic doses are left out.

Test system: L1210 leukemia ip in BDF1 mice, survival T/C
Test: NCI In Vivo Anticancer Drug Screen. Data for tumor model L1210 Leukemia (intraperitoneal) in B6D2F1 (BDF1) mice
Details: endpoint: mean survival time, higher = longer survival
Summary of the method: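 Transplantable tumor model; survival measured in treated vs vehicle control mice. Value = treated/control.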

[1] = dose: 50.0 mg/kg/injection, schedule: Q01DX001 (ip), vehicle: saline
[2] = dose: 100.0 mg/kg/injection, schedule: Q01DX001 (ip), vehicle: saline
[3] = dose: 200.0 mg/kg/injection, schedule: Q01DX001 (ip), vehicle: saline
[4] = dose: 400.0 mg/kg/injection, schedule: Q01DX001 (ip), vehicle: saline
[5] = dose: 100.0 mg/kg/injection, schedule: Q04DX003 (ip), vehicle: Klucel (hydroxypropylcellulose) (HPC)
[6] = dose: 100.0 mg/kg/injection, schedule: Q04DX002 (ip), vehicle: Klucel (hydroxypropylcellulose) (HPC)
[7] = dose: 200.0 mg/kg/injection, schedule: Q04DX002 (ip), vehicle: Klucel (hydroxypropylcellulose) (HPC)
[8] = dose: 400.0 mg/kg/injection, schedule: Q04DX002 (ip), vehicle: Klucel (hydroxypropylcellulose) (HPC)
[9] = dose: 100.0 mg/kg/injection, schedule: Q01DX009 (ip), vehicle: saline with Tween-80
[10] = dose: 200.0 mg/kg/injection, schedule: Q01DX009 (ip), vehicle: saline with Tween-80
[11] = dose: 100.0 mg/kg/injection, schedule: Q04DX003 (ip), vehicle: saline with Tween-80
[12] = dose: 100.0 mg/kg/injection, schedule: Q01DX001 (ip), vehicle: saline with Tween-80
[13] = dose: 200.0 mg/kg/injection, schedule: Q01DX001 (ip), vehicle: saline with Tween-80
[14] = dose: 25.0 mg/kg/injection, schedule: Q04DX003 (ip), vehicle: saline
[15] = dose: 50.0 mg/kg/injection, schedule: Q04DX003 (ip), vehicle: saline
[16] = dose: 100.0 mg/kg/injection, schedule: Q04DX003 (ip), vehicle: saline
[17] = dose: 100.0 mg/kg/injection, schedule: Q01DX001 (ip), vehicle: carboxymethylcellulose (CMC)
[18] = dose: 200.0 mg/kg/injection, schedule: Q01DX001 (ip), vehicle: carboxymethylcellulose (CMC)
[19] = dose: 400.0 mg/kg/injection, schedule: Q01DX001 (ip), vehicle: carboxymethylcellulose (CMC)
[20] = dose: 100.0 mg/kg/injection, schedule: Q01DX009 (ip), vehicle: Klucel (hydroxypropylcellulose) (HPC)
[21] = dose: 200.0 mg/kg/injection, schedule: Q01DX009 (ip), vehicle: Klucel (hydroxypropylcellulose) (HPC)
[22] = dose: 400.0 mg/kg/injection, schedule: Q01DX009 (ip), vehicle: Klucel (hydroxypropylcellulose) (HPC)

## CC(C)C1CCC(N)CC1 (configuration not stated)
dose: 75.0 mg/kg/injection, schedule: Q01DX001 (ip), vehicle: saline
  T/C: 100 % of control

## CCOC(=O)C1=NC(c2ccccc2)N(c2ccccc2)C1c1ccccc1 (configuration not stated)
[1]
  T/C: 100 % of control
[2]
  T/C: 100 % of control
[3]
  T/C: 100 % of control
[4]
  T/C: 103 % of control

## CN(C)c1ccc(/C=C/C(=O)c2ccc([N+](=O)[O-])cc2)c(Cl)c1
[5]
  T/C: 92 % of control
dose: 200.0 mg/kg/injection, schedule: Q04DX003 (ip), vehicle: Klucel (hydroxypropylcellulose) (HPC)
  T/C: 97 % of control
dose: 400.0 mg/kg/injection, schedule: Q04DX003 (ip), vehicle: Klucel (hydroxypropylcellulose) (HPC)
  T/C: 97 % of control

## Cc1c(F)cccc1OCC(=O)O
[6]
  T/C: 111 % of control
[7]
  T/C: 108 % of control
[8]
  T/C: 105 % of control

## Oc1ccc(C(O)(c2ccccc2)c2ccc(O)c3ccccc23)c2ccccc12
[9]
  T/C: 96 % of control
[10]
  T/C: 91 % of control

## C=CCOC1C=CC=CC=C1
dose: 25.0 mg/kg/injection, schedule: Q01DX009 (ip), vehicle: Klucel (hydroxypropylcellulose) (HPC)
  T/C: 100 % of control
dose: 50.0 mg/kg/injection, schedule: Q01DX009 (ip), vehicle: Klucel (hydroxypropylcellulose) (HPC)
  T/C: 100 % of control
[5]
  T/C: 94 % of control

## CC(=O)N(C)C1=C(Sc2ccc([N+](=O)[O-])cc2)C(=O)c2ccccc2C1=O
dose: 50.0 mg/kg/injection, schedule: Q04DX003 (ip), vehicle: other
  T/C: 92 % of control
dose: 100.0 mg/kg/injection, schedule: Q01DX001 (ip), vehicle: other
  T/C: 97 % of control
dose: 100.0 mg/kg/injection, schedule: Q04DX003 (ip), vehicle: other
  T/C: 97 % of control
dose: 200.0 mg/kg/injection, schedule: Q01DX001 (ip), vehicle: other
  T/C: 96 % of control
dose: 200.0 mg/kg/injection, schedule: Q04DX003 (ip), vehicle: other
  T/C: 86 % of control
dose: 400.0 mg/kg/injection, schedule: Q01DX001 (ip), vehicle: other
  T/C: 92 % of control

## CC12C(=O)N(C3CCC(=O)NC3=O)C(=O)C1C1CCC2C1 (configuration not stated)
[11]
  T/C: 96 % of control

## O=C(O)C(O)C(O)C(=O)O (configuration not stated)
dose: 100.0 mg/kg/injection, schedule: Q01DX009 (ip), vehicle: saline
  T/C: 106 % of control
dose: 200.0 mg/kg/injection, schedule: Q01DX009 (ip), vehicle: saline
  T/C: 104 % of control
dose: 400.0 mg/kg/injection, schedule: Q01DX009 (ip), vehicle: saline
  T/C: 102 % of control

## NC(=S)N/N=C/c1ccccc1S(=O)(=O)O
[2]
  T/C: 96 % of control
[3]
  T/C: 94 % of control
[4]
  T/C: 102 % of control

## CC(=O)NC(c1ccccc1)C(C)C (configuration not stated)
[12]
  T/C: 92 % of control
[13]
  T/C: 103 % of control

## COC(=O)C(Br)(C(=O)OC)C(c1ccccc1)c1ccccc1
dose: 100.0 mg/kg/injection, schedule: Q04DX002 (ip), vehicle: other
  T/C: 90 % of control
dose: 200.0 mg/kg/injection, schedule: Q04DX002 (ip), vehicle: other
  T/C: 86 % of control
dose: 400.0 mg/kg/injection, schedule: Q04DX002 (ip), vehicle: other
  T/C: 93 % of control

## CC1(C)C(N2CCCC2)N(C(=O)c2ccccc2)SC12c1ccccc1-c1ccccc12 (configuration not stated)
[6]
  T/C: 102 % of control
[7]
  T/C: 105 % of control
[8]
  T/C: 98 % of control

## CN(NCc1ccccc1)C(=N)N
[14]
  T/C: 106 % of control
[15]
  T/C: 109 % of control
[2]
  T/C: 107 % of control
[16]
  T/C: 109 % of control

## CC(=O)Nc1cccc(OCc2cccc([N+](=O)[O-])c2)c1
[17]
  T/C: 97 % of control
[18]
  T/C: 92 % of control
[19]
  T/C: 108 % of control

## CCCN1CC(C(=O)OCC)C(=O)C1=O (configuration not stated)
[1]
  T/C: 108 % of control
[2]
  T/C: 100 % of control
[3]
  T/C: 96 % of control
[4]
  T/C: 102 % of control

## O=C(COc1ccc(Cl)c(Cl)c1)NCc1ccc[n+](Cc2cc(Cl)ccc2S(=O)(=O)F)c1
[11]
  T/C: 101 % of control
dose: 200.0 mg/kg/injection, schedule: Q04DX003 (ip), vehicle: saline with Tween-80
  T/C: 114 % of control
dose: 400.0 mg/kg/injection, schedule: Q04DX003 (ip), vehicle: saline with Tween-80
  T/C: 88 % of control

## C/C(=N\N)C(=O)S(=O)(=O)c1c(C)cc(C)cc1C
dose: 100.0 mg/kg/injection, schedule: Q01DX001 (ip), vehicle: Klucel (hydroxypropylcellulose) (HPC)
  T/C: 97 % of control
dose: 200.0 mg/kg/injection, schedule: Q01DX001 (ip), vehicle: Klucel (hydroxypropylcellulose) (HPC)
  T/C: 97 % of control
dose: 400.0 mg/kg/injection, schedule: Q01DX001 (ip), vehicle: Klucel (hydroxypropylcellulose) (HPC)
  T/C: 101 % of control

## COc1ccc(N=CC2CCCCC2=O)c([N+](=O)[O-])c1 (configuration not stated)
[2]
  T/C: 106 % of control
[3]
  T/C: 95 % of control
[4]
  T/C: 93 % of control

## Cc1cc(OC(=O)Nc2cccc(Cl)c2Cl)c(C(C)C)cc1Cl
[20]
  T/C: 97 % of control
[21]
  T/C: 94 % of control
[22]
  T/C: 100 % of control

## c1ccc2[nH]c(-c3c[nH]c4ccccc34)cc2c1
[1]
  T/C: 106 % of control
[2]
  T/C: 102 % of control
[3]
  T/C: 106 % of control

## CCN(CC)CCCC(C)Nc1c2ccc(Cl)cc2nc2cc(Cl)ccc12 (configuration not stated)
dose: 25.0 mg/kg/injection, schedule: Q01DX009 (ip), vehicle: saline
  T/C: 92 % of control
[14]
  T/C: 100 % of control
dose: 50.0 mg/kg/injection, schedule: Q01DX009 (ip), vehicle: saline
  T/C: 95 % of control
[15]
  T/C: 98 % of control
[16]
  T/C: 93 % of control and 86 % of control

## COc1cc2c(cc1OC(C)=O)C(=O)C(Br)CCC2 (configuration not stated)
dose: 50.0 mg/kg/injection, schedule: Q01DX009 (ip), vehicle: saline with Tween-80
  T/C: 90 % of control
[9]
  T/C: 101 % of control
[10]
  T/C: 93 % of control

## O=c1nc(NC2OC(CO)C(O)C2O)ccn1C1OC(CO)C(O)C1O (configuration not stated)
dose: 100.0 mg/kg/injection, schedule: Q01DX005 (ip), vehicle: saline
  T/C: 102 % of control
dose: 200.0 mg/kg/injection, schedule: Q01DX005 (ip), vehicle: saline
  T/C: 108 % of control

## O=C(Nc1ccc(Cl)cc1)N1CC1
dose: 12.5 mg/kg/injection, schedule: Q04DX003 (ip), vehicle: Klucel (hydroxypropylcellulose) (HPC)
  T/C: 92 % of control
dose: 25.0 mg/kg/injection, schedule: Q04DX003 (ip), vehicle: Klucel (hydroxypropylcellulose) (HPC)
  T/C: 94 % of control
dose: 50.0 mg/kg/injection, schedule: Q04DX003 (ip), vehicle: Klucel (hydroxypropylcellulose) (HPC)
  T/C: 98 % of control

## O=C(Nc1ccc(S(=O)(=O)NC2CCCCC2)cc1)OC1CCCC1
[17]
  T/C: 95 % of control
[18]
  T/C: 94 % of control
[19]
  T/C: 97 % of control

## O=C(CCl)Nc1ccc(S(=O)(=O)F)cc1
dose: 12.5 mg/kg/injection, schedule: Q01DX009 (ip), vehicle: carboxymethylcellulose (CMC)
  T/C: 93 % of control
dose: 25.0 mg/kg/injection, schedule: Q01DX009 (ip), vehicle: carboxymethylcellulose (CMC)
  T/C: 88 % of control
dose: 50.0 mg/kg/injection, schedule: Q01DX009 (ip), vehicle: carboxymethylcellulose (CMC)
  T/C: 88 % of control
dose: 100.0 mg/kg/injection, schedule: Q04DX003 (ip), vehicle: carboxymethylcellulose (CMC)
  T/C: 96 % of control

## O=S(=O)(Nc1cc2c(nc3ccccn32)c2ccccc12)c1ccccc1
[1]
  T/C: 103 % of control

## S=C(Sc1ccc(Cl)cc1)Sc1ccc(Cl)cc1
[2]
  T/C: 93 % of control
[3]
  T/C: 93 % of control
[4]
  T/C: 90 % of control

## CC(=O)Nc1ccc(F)c(Cl)c1F
[6]
  T/C: 121 % of control
[7]
  T/C: 105 % of control
[8]
  T/C: 102 % of control

## CC(C)OCCCN
[17]
  T/C: 97 % of control
[18]
  T/C: 97 % of control

## Cc1ccc2nn(-c3ccc(O)cc3)nc2c1
[17]
  T/C: 98 % of control
[18]
  T/C: 93 % of control
[19]
  T/C: 96 % of control

## Cc1cc(N(CCCOS(C)(=O)=O)CCCOS(C)(=O)=O)ccc1C=Nc1ccc(-c2nc(Cc3ccccc3)sc2C)cc1
[9]
  T/C: 96 % of control
[10]
  T/C: 98 % of control

## O=C(Nc1ccccc1)OCC#CCOC(=O)Nc1ccccc1
[20]
  T/C: 97 % of control
[21]
  T/C: 90 % of control
[22]
  T/C: 100 % of control

## O=C1c2ccsc2C(=O)c2sccc21
[12]
  T/C: 103 % of control
[13]
  T/C: 92 % of control
